Assay results from ChEMBL document CHEMBL1201862, “PubChem BioAssay data set” (2004).
One block for each molecule: values may come before it. Calls of active or inactive are those of the source.

Experiments:
[1] = blockers of bursicon-stimulated LGR2 cAMP reporter – cell-based, HEK293, CRE-luciferase reporter, cherry pick, set 2, dose response (AID 743343); assay type: functional;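 note: transfected cells were stimulated with diluted bursicon conditioned medium after compound addition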
[2] = A549 cell cytotoxicity, dose response, cytotoxicity control, plate reader, cherry-pick, antagonist series (AID 743412); assay type: functional, cell-based
Prothrombin = Prothrombin (Homo sapiens, UniProt P00734); assay: Thrombin 1536 HTS Dose Response Confirmation. [Related pubchem assays: 1046 (Thrombin 1536 HTS; hits were confirmed in this assay)]; assay type: functional
HEK293 = assay: EBV LMP1 TES2 canonical NF-kB signalling blockers – cell-based, HEK293, luciferase, cherry-pick, dose response (AID 588343); assay type: functional; conditions: Homo sapiens
[3] = blockade of melanocortin 4 receptor signaling – cell-based, plate reader, cherry pick, counter-screen for LGR2 antagonist project, dose response (AID 743444); assay type: functional;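 note: transfected HEK 293 cells stimulated with alpha-MSH peptide; potency of inhibitors of the alpha-MSH evoked signal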
[4] = toxicity toward HepG2 liver cells – cell-based, plate reader, cherry-pick, antagonist series, cytotoxicity control, dose response (AID 743416); assay type: functional
[5] = viability of uninfected HEp-2 cells – cell-based, HTS, cytotoxicity control for RSV inhibitor project, dose response (AID 2410); assay type: functional; conditions: human respiratory syncytial virus
fMet-Leu-Phe receptor = target: T1, fMet-Leu-Phe receptor (Homo sapiens, UniProt P21462); assay: formyl peptide receptor binders – dose response (AID 519); assay type: functional
T1 sequence (P21462 whole entry): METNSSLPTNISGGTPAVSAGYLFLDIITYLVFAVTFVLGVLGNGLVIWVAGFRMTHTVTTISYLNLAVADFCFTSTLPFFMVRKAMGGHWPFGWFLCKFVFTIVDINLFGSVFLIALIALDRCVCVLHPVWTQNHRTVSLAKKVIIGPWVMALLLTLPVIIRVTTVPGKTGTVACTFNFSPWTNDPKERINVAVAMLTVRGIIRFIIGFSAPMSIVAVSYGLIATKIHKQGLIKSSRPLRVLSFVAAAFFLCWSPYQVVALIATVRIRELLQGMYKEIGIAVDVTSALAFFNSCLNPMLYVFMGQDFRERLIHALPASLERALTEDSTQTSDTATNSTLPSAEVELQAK

[6] = target: Glyceraldehyde-3-phosphate dehydrogenase (Homo sapiens, UniProt P04406)
Bcl-2-related protein A1 [7] = target: T2, Bcl-2-related protein A1 (Mus musculus, UniProt Q07440); assay: Bfl-1 binding inhibitors, SAR follow-up, biochemical, fluorescence polarization (AID 1070)
T2 sequence (Q07440 whole entry): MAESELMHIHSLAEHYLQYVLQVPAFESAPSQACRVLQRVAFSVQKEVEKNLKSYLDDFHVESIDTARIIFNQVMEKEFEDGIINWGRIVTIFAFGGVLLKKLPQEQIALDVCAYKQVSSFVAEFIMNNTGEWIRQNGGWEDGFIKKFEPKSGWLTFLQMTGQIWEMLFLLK

Bcl-2-related protein A1 [8] = target: T2, Bcl-2-related protein A1; assay: small-molecule antagonists of Bfl-1/BH3 interaction – biochemical, TR-FRET, mouse Bfl-1, confirmation (AID 621);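 note: TR-FRET binding of GST-Bfl-1 to FITC-labelled Bid peptide via terbium antibody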
[9] = HIV-1 AD8 envelope cell-cell fusion blockers – cherry-pick, dose response (AID 652062); assay type: functional, cell-based;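 note: luciferase signal from cell-cell fusion driven by HIV-1 clade B AD8 Env; potency is for inhibitors of fusion seen as a drop in luminescence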
[10] = blockers of HIV-1 ZM109 envelope-driven cell-cell fusion – HeLa effector, CEM target cells, luciferase, cherry-pick, dose response (AID 652058); assay type: functional, cell-based;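 note: luciferase signal from HIV-1 Env mediated cell-cell fusion of effector and target cells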
[11] = blockers of HIV-1 envelope-mediated cell-cell fusion – cherry-pick, dose response (AID 652057); assay type: functional, cell-based
[12] = off-target signal loss in HeLa-CEM21 co-culture – HeLa F-luc CTL cells, cherry-picked, counter-screen for HIV-1 Env fusion inhibitor project, dose response (AID 652040); assay type: functional, cell-based;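 note: potency for signal decrease marking cytotoxic or nonspecific inhibition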
Cytochrome P450 2D6 = Cytochrome P450 2D6 (Homo sapiens, UniProt P10635); assay: qHTS Assay for Inhibitors and Substrates of Cytochrome P450 2D6. [Related pubchem assays: 410 ]; assay type: ADME; conditions: read-out: Potency
[13] = inhibition of ADAM10 peptide cleavage – biochemical, FRET peptide substrate, recombinant human ADAM10, selectivity assay for ADAM17 exosite inhibitor project, dose response (AID 743259);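 note: ADAM10 enzyme cleaving a FRET peptide substrate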
[14] = target: Disintegrin and metalloproteinase domain-containing protein 17 (Homo sapiens, UniProt P78536); assay: exosite inhibitors of ADAM17, dose response, biochemical (AID 743260)
Cytochrome P450 2C9 = Cytochrome P450 2C9 (Homo sapiens, UniProt P11712); conditions: Potency
[15] = target: Eukaryotic translation initiation factor 4E (Mus musculus, UniProt P63073); assay: blockers of eIF4G binding by eIF4E – biochemical, TR-FRET, dose response (AID 855); assay type: functional;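 note: potency for disrupting eIF4E binding to eIF4GI seen as loss of FRET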
[16] = viability loss in Vero cells – cytotoxicity control for Vif-APOBEC3G degradation inhibitor project, dose response (AID 1117358); assay type: functional; conditions: Vero
cells = assay type: functional, cell-based; conditions: HEK-CNG
H9c2 = assay: cells; assay type: functional, cell-based; conditions: Rattus norvegicus, H9c2, Myocardium;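 note: confirmatory concentration-response retest of ultra-high-throughput screening hits for modulation of myocardial damage; cell death induced by hydrogen peroxide oxidative stress; compound pretreatment for 60 min then peroxide exposure for 2 h; potency is for protecting the cells against peroxide damage rather than for killing them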
Galanin receptor type 3 = target: T3, Galanin receptor type 3 (Homo sapiens, UniProt O60755); assay: Fluorescence-based cell-based primary high throughput dose response assay to identify antagonists of the Galanin Receptor 3 (GalR3).; assay type: functional
T3 sequence (O60755 whole entry): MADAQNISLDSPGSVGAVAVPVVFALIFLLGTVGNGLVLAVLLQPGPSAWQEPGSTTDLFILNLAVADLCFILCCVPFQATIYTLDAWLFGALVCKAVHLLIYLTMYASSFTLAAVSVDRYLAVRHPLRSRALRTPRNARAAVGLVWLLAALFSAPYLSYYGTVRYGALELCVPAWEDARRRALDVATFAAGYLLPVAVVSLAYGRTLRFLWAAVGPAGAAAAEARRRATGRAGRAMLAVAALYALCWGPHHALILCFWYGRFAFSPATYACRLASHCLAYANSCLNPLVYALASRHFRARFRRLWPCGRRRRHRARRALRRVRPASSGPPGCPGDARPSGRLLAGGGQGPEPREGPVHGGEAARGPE
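Throughout, for EC50: target is galanin receptor GalR3 read with a cAMP biosensor in HEK293 cells.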

Cytochrome P450 2D6, sequence (P10635 whole entry): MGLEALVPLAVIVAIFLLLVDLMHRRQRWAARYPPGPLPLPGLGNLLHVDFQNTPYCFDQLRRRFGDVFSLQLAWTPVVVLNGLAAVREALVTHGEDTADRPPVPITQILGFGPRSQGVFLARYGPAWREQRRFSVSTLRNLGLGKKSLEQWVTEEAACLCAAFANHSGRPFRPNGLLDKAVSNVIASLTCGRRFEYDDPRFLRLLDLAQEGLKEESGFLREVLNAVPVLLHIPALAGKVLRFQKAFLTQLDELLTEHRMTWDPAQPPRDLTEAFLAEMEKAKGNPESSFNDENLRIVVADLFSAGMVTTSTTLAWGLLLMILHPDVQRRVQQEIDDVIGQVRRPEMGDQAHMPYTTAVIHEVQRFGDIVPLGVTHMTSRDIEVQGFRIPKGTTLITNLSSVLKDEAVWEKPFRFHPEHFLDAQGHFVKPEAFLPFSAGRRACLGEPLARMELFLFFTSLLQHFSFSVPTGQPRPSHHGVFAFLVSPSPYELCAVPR
Cytochrome P450 2C9, sequence (P11712 whole entry): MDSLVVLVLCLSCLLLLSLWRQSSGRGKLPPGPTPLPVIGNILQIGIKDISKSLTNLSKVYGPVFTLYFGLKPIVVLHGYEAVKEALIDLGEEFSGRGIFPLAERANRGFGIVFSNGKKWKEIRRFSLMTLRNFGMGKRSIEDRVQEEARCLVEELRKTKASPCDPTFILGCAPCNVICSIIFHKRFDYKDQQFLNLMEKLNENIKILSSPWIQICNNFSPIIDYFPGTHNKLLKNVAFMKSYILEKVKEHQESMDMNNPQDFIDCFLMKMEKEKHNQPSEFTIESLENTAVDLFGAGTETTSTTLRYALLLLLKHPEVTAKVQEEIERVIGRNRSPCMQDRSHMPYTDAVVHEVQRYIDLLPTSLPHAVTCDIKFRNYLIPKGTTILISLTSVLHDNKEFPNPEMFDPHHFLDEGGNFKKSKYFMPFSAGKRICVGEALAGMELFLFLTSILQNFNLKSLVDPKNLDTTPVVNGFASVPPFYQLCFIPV
Glyceraldehyde-3-phosphate dehydrogenase, sequence (P04406 whole entry): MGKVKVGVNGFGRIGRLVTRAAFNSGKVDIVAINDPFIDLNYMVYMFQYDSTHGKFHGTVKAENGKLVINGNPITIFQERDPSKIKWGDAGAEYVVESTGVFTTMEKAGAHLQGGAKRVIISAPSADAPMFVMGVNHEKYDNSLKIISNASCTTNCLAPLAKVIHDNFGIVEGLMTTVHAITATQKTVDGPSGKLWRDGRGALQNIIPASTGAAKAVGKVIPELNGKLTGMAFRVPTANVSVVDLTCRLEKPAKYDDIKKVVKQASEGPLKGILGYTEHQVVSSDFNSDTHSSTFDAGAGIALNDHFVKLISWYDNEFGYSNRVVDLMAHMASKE
Disintegrin and metalloproteinase domain-containing protein 17, sequence (P78536 whole entry, the tested form may be a part): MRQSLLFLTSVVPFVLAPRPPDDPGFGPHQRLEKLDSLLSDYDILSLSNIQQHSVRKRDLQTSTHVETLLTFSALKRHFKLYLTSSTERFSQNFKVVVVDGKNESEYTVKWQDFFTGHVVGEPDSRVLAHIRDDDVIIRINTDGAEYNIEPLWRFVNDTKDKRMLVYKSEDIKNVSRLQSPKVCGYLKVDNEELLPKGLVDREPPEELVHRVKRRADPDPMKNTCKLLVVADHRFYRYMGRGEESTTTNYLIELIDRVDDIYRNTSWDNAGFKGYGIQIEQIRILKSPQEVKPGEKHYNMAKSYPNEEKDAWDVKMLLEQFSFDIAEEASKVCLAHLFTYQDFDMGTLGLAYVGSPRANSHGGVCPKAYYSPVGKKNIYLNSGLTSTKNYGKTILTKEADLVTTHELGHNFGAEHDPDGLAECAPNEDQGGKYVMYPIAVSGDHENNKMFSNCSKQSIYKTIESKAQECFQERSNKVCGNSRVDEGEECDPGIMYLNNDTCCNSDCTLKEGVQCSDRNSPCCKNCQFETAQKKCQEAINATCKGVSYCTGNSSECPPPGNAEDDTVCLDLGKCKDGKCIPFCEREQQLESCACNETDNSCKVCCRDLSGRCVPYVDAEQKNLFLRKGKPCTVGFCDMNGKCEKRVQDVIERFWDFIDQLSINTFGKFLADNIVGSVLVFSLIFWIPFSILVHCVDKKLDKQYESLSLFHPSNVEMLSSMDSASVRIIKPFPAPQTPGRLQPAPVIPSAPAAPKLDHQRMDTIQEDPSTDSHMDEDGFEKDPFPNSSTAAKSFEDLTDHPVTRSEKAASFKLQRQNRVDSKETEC
Eukaryotic translation initiation factor 4E, sequence (P63073 whole entry): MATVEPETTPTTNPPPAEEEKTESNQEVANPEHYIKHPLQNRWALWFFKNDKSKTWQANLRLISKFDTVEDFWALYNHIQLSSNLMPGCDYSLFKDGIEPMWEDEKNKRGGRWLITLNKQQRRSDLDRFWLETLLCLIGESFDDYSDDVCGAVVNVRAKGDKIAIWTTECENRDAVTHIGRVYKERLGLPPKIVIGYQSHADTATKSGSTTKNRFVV

Structure (SMILES): O=C(Nc1nc2cc3c(cc2s1)OCO3)c1ccco1
AC50 [1]: 4.2 µM (active)
AC50 [2]: > 52 µM (inactive)
IC50 (Prothrombin): 9.57 µM (active)
AC50 (HEK293): 1.57 µM (active)
AC50 [3]: 4.79 µM (active)
AC50 [4]: > 52 µM (inactive)

Ki (fMet-Leu-Phe receptor): > 66.7 µM (inactive)
Structure (SMILES): Cc1ccc(NC(=O)C2CCCN2S(=O)(=O)c2cccc3cccnc23)cc1F (stereo not given)
CC50 [5]: 39.4 µM (active)

IC50 [6]: > 10 µM (inconclusive)
IC50 (Bcl-2-related protein A1 [7]): 1.63 µM (active)
IC50 (Bcl-2-related protein A1 [8]): 1.33 µM (active)
Structure (SMILES): O=C1C(Cl)=C(N2CCOCC2)C(=O)N1c1cc(Cl)cc(Cl)c1

IC50 (Prothrombin): > 50 µM (not active)
Structure (SMILES): COc1cccc(CN(C)C(=O)CCc2nnc(-c3ccsc3)o2)c1

Structure (SMILES): COc1ccc2nc(O)c(CN(Cc3cccs3)Cc3nnnn3Cc3ccccc3)cc2c1
AC50 [9]: 4.94 µM (active)
AC50 [10]: 5.4 µM (active)
AC50 [11]: 3.01 µM (active)
AC50 [12]: 4.44 µM (active)

AC50 (Cytochrome P450 2D6): 20 µM (inconclusive)
Structure (SMILES): c1ccc(Nc2cc(-c3ccoc3)ncn2)cc1

IC50 (Prothrombin): 0.246 µM (active)
Structure (SMILES): COCC(=O)n1nc(-c2ccccc2)nc1NCc1ccccc1

IC50 [14]: > 69.5 µM (inactive)
Structure (SMILES): COc1ccc(NS(=O)(=O)c2cc(NC(=O)c3cccs3)ccc2N2CCCC2)cc1
IC50 [13]: > 69.5 µM (inactive)

AC50 (Cytochrome P450 2C9): 39.8 µM (inconclusive)
AC50 (Cytochrome P450 2D6): 10 µM (inconclusive)
Structure (SMILES): C=C1C(=O)O[C@H]2C[C@@]3(C)CCCC(=C)[C@@H]3C[C@H]12

AC50 (Cytochrome P450 2C9): 6.31 µM (inconclusive)
Structure (SMILES): CC(C)[C@@H](CC(=O)N[C@@H]1CCCC[C@H]1C(=O)N[C@H](CC(=O)N[C@@H](CCC(=O)O)CC(=O)O)Cc1ccccc1)NC(=O)C[C@H](Cc1ccccc1)NC(=O)[C@@H]1CNCC[C@H]1N

IC50 [15]: 50 µM (inactive)
Structure (SMILES): O=C(c1ccccc1)N(Nc1ccccc1)c1ccccc1

Structure (SMILES): CN1C(=O)CSc2ccc(NC(=O)NCc3cccnc3)cc21
CC50 [16]: > 40 µM (active)

AC50 (Cytochrome P450 2C9): 39.8 µM (inconclusive)
AC50 (Cytochrome P450 2D6): 25.1 µM (inconclusive)
Structure (SMILES): C=CC1=C(C)C2=NC/1=C\C1=[N+]3[Zn-2][N+]4=C(/C=C5N=C(/C=C3/C(CCC(=O)O)=C1C)C(CCC(=O)O)=C\5C)C(C)=C(C=C)/C4=C/2

Structure (SMILES): O=C1C(Cl)=C(Cl)C(=O)N1c1ccc(C(F)(F)F)cc1
IC50 [6]: > 100 µM (not active)
IC50 (Bcl-2-related protein A1 [7]): 0.999 µM (active)
IC50 (Bcl-2-related protein A1 [8]): 1.46 µM (active)

Structure (SMILES): COc1cccc(Cn2nc(C(=O)O)c3ccccc3c2=O)c1
EC50 (cells): > 29.9 µM (inactive)
IC50 (H9c2): > 79 µM (inactive)
IC50 (Galanin receptor type 3): > 29.9 µM (inactive)

Ki (fMet-Leu-Phe receptor): > 66.7 µM (inactive)
Structure (SMILES): O=C(C1=C(O)C(=O)N(c2ncccn2)C1c1ccc(Cl)cc1)c1ccco1 (stereo not given)

Structure (SMILES): Cc1ccc(C(=O)OC2CCS(=O)(=O)c3sccc32)cc1 (stereo not given)
CC50 [16]: 32.7 µM (active)
